Where two headings read alike, the source gives them in different places.
How the values were obtained:
steroid 5α-reductase = settings: cited from earlier work; for Ki: read-out: K1; for reversibility of inhibition (Reversible / Irreversible): printed in parentheses beside K1; for mode of inhibition (in words): literature statement in text
[1] = target: T1, human steroid 5α-reductase (Homo sapiens, UniProt P31213); assay: Inhibition of human prostatic steroid 5α-reductase ([14C]-testosterone conversion, Dixon analysis); format: biochemical
T1 construct: using tissue from hyperplastic human prostates; from tissue; host or cells: frozen human prostates (hyperplastic), washed particulate fraction from differential centrifugation
T1 sequence (P31213 1-254): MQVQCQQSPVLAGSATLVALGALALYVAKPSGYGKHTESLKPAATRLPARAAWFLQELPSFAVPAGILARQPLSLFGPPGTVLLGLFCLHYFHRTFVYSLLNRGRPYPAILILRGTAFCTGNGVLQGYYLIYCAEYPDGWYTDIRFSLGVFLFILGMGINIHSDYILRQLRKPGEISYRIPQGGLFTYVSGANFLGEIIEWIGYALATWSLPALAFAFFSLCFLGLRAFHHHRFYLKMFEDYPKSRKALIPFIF
Method: In determining potency in inhibiting the human enzyme, the following procedure was employed:
The resulting pellet was suspended in 20 mM potassium phosphate buffer, pH 6.5, containing 20% glycerol, 1 mM dithiothreitol, and 50 μM NADPH. The suspended particulate solution was stored at -80° C.
To each tube was added buffer, 20 μl of 10 mM NADPH and an aliquot of prostatic particulate solution to a final volume of 1.0 ml of 50 mM sodium citrate, pH 5.0. After incubating the solution at 37° C. for 20 to 30 minutes the reaction was quenched by the addition of 4 ml ethyl acetate and 0.25 μmol each of testosterone, dihydrotestosterone, androstanediol, and androstanedione as carriers. […] The radiochemical content in the bands of the substrate and the products was determined with a BIOSCAN Imaging Scanner (Bioscan, Inc., Washington, D.C.). The percent of recovered radiolabel converted to product was calculated, from which enzyme activity was determined. […]
The experimentally obtained data was computer fitted to a linear function by plotting the reciprocal of the enzyme activity (1/velocity) against the variable inhibitor concentration (Dixon, M. (1953), Biochem. J., 55, 170). Assuming that the steroidal inhibitor is a competitive inhibitor against testosterone, a value for the inhibition constant (Ki) can be calculated from equation 1: […]

[2] = 5α-reductase inhibitors, literature reference given per compound

Compound: C[C@]12CC[C@H]3[C@@H](CCC4=CC(=O)CC[C@@]43C)[C@@H]1CC[C@@H]2C(=O)O [(1)]
- Ki (steroid 5α-reductase; [2]): 1100 nM
- reversibility of inhibition (Reversible / Irreversible) (steroid 5α-reductase): Reversible

Compound: CC(=O)C1CCC2C3CC=C=CC(=O)CCC(=O)C3CCC12C (centres unmarked) [(2)]
- Ki (steroid 5α-reductase; [2]): 1000 nM
- reversibility of inhibition (Reversible / Irreversible) (steroid 5α-reductase): Irreversible

Compound: CC(CO)[C@H]1CC[C@H]2[C@@H]3CC[C@H]4C(=[N+]=[N-])C(=O)CC[C@]4(C)[C@H]3CC[C@]12C (some centres unmarked) [(3)]
- mode of inhibition (in words) (steroid 5α-reductase): potent, time-dependent inhibitor of steroid 5α-reductase
- reversibility of inhibition (Reversible / Irreversible) (steroid 5α-reductase): Irreversible
- Ki (steroid 5α-reductase; unit inferred, Blohm, et al., 1980): 35 nM

Compound: CCN(CC)C(=O)[C@H]1CC[C@H]2[C@@H]3CC[C@H]4N(C)C(=O)CC[C@]4(C)[C@H]3CC[C@]12C [(4)]
- Ki (steroid 5α-reductase; [2]): 5 nM
- reversibility of inhibition (Reversible / Irreversible) (steroid 5α-reductase): Reversible

Compound: C=C1C[C@@H]2[C@H](CC[C@@]3(C)[C@H]2CC[C@]3(OC(C)=O)C(C)=O)[C@@]2(C)CCC(=O)C=C12 [(5)]
- Ki (steroid 5α-reductase; [2]): 1250 nM
- mode of inhibition (in words) (steroid 5α-reductase): time dependent inactivator of steroid 5α-reductase
- reversibility of inhibition (Reversible / Irreversible) (steroid 5α-reductase): Irreversible

Compound: CC(C)N(C(=O)[C@H]1CC[C@H]2[C@@H]3CC=C4C=C(P(=O)(O)O)CC[C@]4(C)[C@H]3CC[C@]12C)C(C)C [Example 1, 17β-(N,N-diisopropylcarboxamide)-androst-3,5-diene-3phosphonic acid]
- Ki ([1]; hyperplastic human prostate particulate, pH 5.0, 37° C., 20 to 30 minutes, competitive inhibition against testosterone assumed, read-out: Ki (inhibition constant of human prostatic steroid 5α-reductase)): 15 to 40 nM

Compound: CC(C)N(C(=O)[C@H]1CC[C@H]2[C@@H]3CCC4=CC(P(=O)(O)O)=CC[C@]4(C)[C@H]3CC[C@]12C)C(C)C [Example 30, 17β-(N,N-diisopropylcarboxamide)-androst-2,4-diene-3-phosphonic acid]
- Ki [1]: 160 nM

— US4946834A, “Phosphonic acid substituted steroids as steroid 5α-reductase inhibitors” (priority 1988, dated 1990)
